Data on three molecules can be found in patent US9962362B2, “Use of small molecule inhibitors targeting EYA tyrosine phosphatase” (CHILDREN'S HOSPITAL MEDICAL CENTER, priority 2012, dated 2018).

Series [1] has as its target full-length human recombinant EYA3 (Homo sapiens (Human), UniProt Q99504). Nature of the series: pNPP phosphatase assay, full-length EYA3. Format: biochemical. An excerpt: The catalytic domain of mouse Eya3 (“ED”, comprising residues 223-510 of Eya3) was purified as described by Rayapureddi, J. P. et al. (FEBS Lett 580, 3853-3859 (2006), incorporated by reference in its entirety). For full-length Eya3 (“hEYA3”), human Eya3 isoform 2 (representing the major species identified in human cell lines by mass spectrometry, expressed as residues 127-573 of NM_001990, isoform 1) was sub-cloned into pDEST565 to express a poly-histidine-Glutathione-S-transferase (His-GST) tagged fusion protein with a TVMV protease site. The protein was purified by glutathione-S-transferase affinity chromatography followed by TVMV cleavage, Ni-NTA chromatography, and finally size exclusion chromatography.
(§1) Screening Methods. An inhibitory assay was conducted using the previously described p-nitrophenylphosphate assay (Rayapureddi, J. P. et al. Nature 426, 295-298 (2003)). Briefly, ED was incubated in a reaction mixture containing 20 mM MES pH 6, 2 mM MgCl2, 125 μM inhibitor, 3.4 mM para-nitrophenol phosphate (pNPP) and 0.01 μg/μL enzyme.
The compounds were then tested using full-length human recombinant, purified EYA3 and pNPP as a substrate. Compounds were dissolved in DMSO and diluted as needed. […] Reactions were incubated at 30° C. for 30 minutes and quenched with 100 mM EDTA pH 10. IC50 values were then calculated directly from regression curves using PRISM software. […]

In another series the target is PTP1B (Homo sapiens (Human), UniProt P18031). In words: PTP1B-catalyzed pNPP hydrolysis. Format: biochemical. Conditions: EYA3 vs PTP1B. As for the experimental part:
The catalytic domain of human Eya2 (“hEYA2(ED)”) was similarly sub-cloned as a polyhistidine fusion construct in the vector pDEST-527. Fusion protein was purified by NiNTA chromatography and followed by size-exclusion chromatography over a Superdex-75 column. The relative purity of protein samples was determined using SDS-PAGE. PTP1B was purified as described previously (Rayapureddi, J. P. et al. Nature 426, 295-298 (2003), incorporated by reference in its entirety).
as §1
PTP1B is a classical Cys-based tyrosine phosphatase.

For a further series, the target named is EYA3-SIX2 interaction (Homo sapiens (Human), UniProt Q99504). In words: His-SIX2 pull-down of EYA3 on Ni-NTA. Format: binding. Conditions: 50 μM, 15 minutes. An excerpt:
Each point represents the mean and standard deviation of two independent readings. (C) Plots of Vmax and Km as a function of inhibitor concentration. […] The mixture was loaded on a Ni-NTA column. Beads were washed with 3 column volumes of load buffer (last washes, lanes 2 and 6). Proteins retained on the beads are shown in lanes 3 and 7. Lanes 4 and 8 are molecular weight markers.
One function of the catalytic domain of the EYAs is to mediate its interaction with the SIX proteins. This complex then translocates to the nucleus where the SIX-EYA complex can activate transcription.

In a further series the test system is MCF10A-EYA2 cells. Nature of the series: Transwell migration of MCF10A-EYA2 cells. Conditions: for migration of MCF10A(EYA2) cells: 7.5 μM. In kind it is cell-based. The source says: The tyrosine phosphatase activity of Eya3 and Eya2 promotes single cell motility in breast cancer cells (Pandey, R. N. et al. Oncogene (2010) 29:3715-3722, incorporated by reference in its entirety). EYA2 is over-expressed in breast cancers and is associated with increased metastasis and a poorer outcome (Farabaugh, et al. Oncogene (2011) 259). […] Overexpression of EYA2, but not the tyrosine-phosphatase dead mutant, promoted cell motility (FIG. 2a). […] This effect was dose-dependent (FIG. 2d) and compound (1a) was able to reduce cell motility by over 50% at the lowest concentration (1 μM) tested.
In order to determine whether EYA3 knock down would affect cell migration, a modified Boyden chamber assay was used to measure HUVEC migration. Briefly, human umbilical vein endothelial cells (HUVECs) were purchased from Lonza (Walkersville, Md.) and maintained in the endothelial cell growth medium (PromoCell, Heidelberg, Germany), under a 5% CO2 atmosphere. MCF10A cells from ATCC were stably transfected with either pcDNA 3.2N5-DEST (vector control), V5-EYA2 or V5-EYA2(D250N). Transwell migration experiments were performed as previously described (Pandey, R. N. et al. Oncogene 29, 3715-3722, (2010)).

The test system of series [2] is HUVECs. Nature of the series: HUVEC proliferation (MTT). In kind it is cell-based, human. Conditions: 5 μM, 24 hours.
Series [3] deals with HUVECs. In words: HUVEC tubulogenesis on matrigel. Format: cell-based, human. Conditions: 7.5 μM (highest concentration tested). As to the method:
The EYA inhibitors were also tested in tubulogenesis assays. The tubulogenesis assays were performed in 15-well micro-slide (ibidi LLC, Verona Wis.), using growth factor-reduced matrigel (BD Bioscience, Billerica, Mass.). The matrix was prepared by loading 10 μl of matrigel in each micro-slide well and allowing it to solidify for 30 minutes at 37° C. HUVECs were trypsinized and resuspended at 100,000 cell/ml in EBM+2.5% FBS. 50 μl (5,000 cell) were loaded on top of the solidified matrigel and the preparation was incubated for 20 hours at 37° C. in a humidified incubator in a 5% CO2 atmosphere. Bright field images were taken using an inverted microscope at 2.5× magnification, which allowed imaging of the whole well in two pictures that were later merged in Photoshop. Tubular structures were traced and counted using NeuroJ (NIH, USA). In experiments with inhibitor, the inhibitor was added to the cell suspension before loading. Each sample was loaded in triplicate, and each treatment was repeated for reproducibility.

For the next series, the system named is mouse aortic rings. In words: Aortic ring sprouting angiogenesis assay. Conditions: 5 μM, 10 days, VEGF-stimulated. Format: cell-based. As for the experimental part:
Endothelial cell migration can also be studied ex vivo using the aortic ring assay in which sprouting angiogenesis is monitored by the formation of vascular sprouts outside the wall of mouse aortic rings incubated in collagen matrix and stimulated by VEGF (Gerhardt, H., et al. EXS, 3-15 (2005), hereby incorporated by reference in its entirety). Briefly, mice were obtained from the Cincinnati Children's veterinary service and handled according to the institutional animal care and use protocol. […] Mice were 4 to 6 weeks old female C57BL16, and aortic ring explants were cultured at 37° C. in a humidified incubator under a 5% CO2 atmosphere.
Each inhibitor was serially diluted (between 0.25 mM and 7.5 mM) to stocks of 1000× the working concentrations in sterile 100% DMSO in order to achieve an equal final concentration of DMSO (0.1% v/v) in all culture conditions. For the experiments, the compounds were diluted in EBM containing 2.5% FBS, penicillin/streptomycin and 20 ng/ml VEGF165 (R&D Systems, Minneapolis, Minn.). Each compound was applied from the first day of culture over a 10-day period with medium change every two days. In all experiments, the vehicle (DMSO, 0.1%) was used as control. The sprouting density was derived from counting the number of branches per ring, and the extent of angiogenic sprouting was estimated by measuring the total surface area covered by the vessels as illustrated in FIG. 7.

The subject of series [4] is developing zebrafish vasculature. Nature of the series: Zebrafish model of angiogenesis. In kind it is in vivo. Conditions: for defects in the developing vasculature / number of intersegmental vessels: varying doses; for defects in the developing vasculature: exposure from 5.25 hpf, analysis at 24 hpf. As to the method: Embryos (FLK1-GFP trangenic) were maintained in fish water until the 50% epiboly stage (5.25 hpf) and were transferred into wells of 24-well plate containing the inhibitors in fish water. The analysis for vascular defects was performed after the 24 hpf stage, and embryos were imaged using a fluorescence microscope.
Transgenic fish expressing EGFP in endothelial cells (Tg(flk1:EGFP)) were used to facilitate visualization of the developing vasculature. In control experiments embryos were treated with 0.1% DMSO (vehicle). At the time of analyses (24 hpf) developing vessels normally migrated from the lateral plate mesoderm to the midline and formed the vascular cord, subsequently forming the dorsal aorta and the posterior cardinal vein and followed by the formation of intersegmental vessels at designated branch points (FIG. 6b).

Series [5] relates to retinal neovascularization. In words: Mouse model of oxygen-induced retinopathy. In kind it is in vivo. Conditions: 100 or 50 pmoles injected at P12, analyzed at P16. An excerpt: The mouse model of oxygen-induced retinopathy mimics the retinopathy characteristic of proliferative retiopathy conditions such as retinopathy of prematurity and diabetic retinopathy. […] The resulting retinal hypoxia after day 12, when pups were brought back to 20% O2, induced excessive hypoxia-driven angiogenesis. A characteristic large avascular area at the center of the retina and excessive regrowth of superficial vessels (pre-retinal neovascular tufts) in the mid-peripheral region was observed. […] In contrast, inhibition of either Vegf or Vegfr2 in OIR experiments suppresses both neovascular tuft formation and revascularization.

For series [6], the system named is A673 (Ewings sarcoma) cells. Nature of the series: Mouse xenograft model of Ewings sarcoma. Format: in vivo. Conditions: A673 xenograft in nude mice. As for the experimental part: The affect of EYA inhibitors on a mouse xenograft model of Ewings sarcoma was tested. 5×10^6 A673 (Ewings sarcoma) cells in 0.1 ml sterile matrigel were injected subcutaneously into the dorsal flank region of nude mice. Approximately 5 days after injection, the tumors were about 100-300 mm^3. […] The dose for intra-peritoneal injections was 25 mg/kg/day. The tumor size was monitored every other day. Animals were sacrificed after 2 weeks, or when tumor volume approached 10% of animal weight.

The subject of the next series is retinal vasculature. Nature of the series: Post-natal retinal angiogenesis in mice. In kind it is in vivo, mouse. Conditions: 100 μM injected into eyes at P0.5 and P3, P5 retinas. As to the method:
Next, retinal blood vessel density and angiogenic extension were studied using induced deletion of Eya3 in mice by PDGFB-icreERT2 starting at the day of birth. Isolectin labeled retinal blood vessels at postnatal day 5 in control Eya3fl/fl (FIGS. 8b and 8d) and experimental Eya3fl/fl; PDGFB-icreERT2 (FIGS. […]) mice. FIGS. 8d and 8e are magnified images of the regions indicated in 8b and 8c, respectively.
Next, treatment with an inhibitor of Eya3 was performed to test the effect on post-natal retinal angiogenesis. Briefly, 100 μM of compound 1a was injected into the eyes of post-natal mice, at P0.5 and P3. P5 retinas were then analyzed for effects on the retinal vasculature.

Sequence of PTP1B (P18031 whole entry, species assumed, the tested form may be a part): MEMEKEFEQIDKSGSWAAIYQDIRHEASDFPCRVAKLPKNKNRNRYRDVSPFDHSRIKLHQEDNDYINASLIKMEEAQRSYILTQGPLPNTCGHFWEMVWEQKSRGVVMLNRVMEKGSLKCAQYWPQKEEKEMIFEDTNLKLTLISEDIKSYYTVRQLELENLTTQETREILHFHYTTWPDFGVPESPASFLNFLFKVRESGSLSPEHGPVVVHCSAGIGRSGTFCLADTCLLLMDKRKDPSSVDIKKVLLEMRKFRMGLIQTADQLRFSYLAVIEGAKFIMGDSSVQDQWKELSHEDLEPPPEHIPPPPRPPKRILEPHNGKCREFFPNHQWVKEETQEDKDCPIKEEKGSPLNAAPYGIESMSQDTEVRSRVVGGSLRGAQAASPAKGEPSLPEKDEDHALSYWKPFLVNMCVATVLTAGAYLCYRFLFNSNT
Sequence of full-length human recombinant EYA3 (Q99504 127-573): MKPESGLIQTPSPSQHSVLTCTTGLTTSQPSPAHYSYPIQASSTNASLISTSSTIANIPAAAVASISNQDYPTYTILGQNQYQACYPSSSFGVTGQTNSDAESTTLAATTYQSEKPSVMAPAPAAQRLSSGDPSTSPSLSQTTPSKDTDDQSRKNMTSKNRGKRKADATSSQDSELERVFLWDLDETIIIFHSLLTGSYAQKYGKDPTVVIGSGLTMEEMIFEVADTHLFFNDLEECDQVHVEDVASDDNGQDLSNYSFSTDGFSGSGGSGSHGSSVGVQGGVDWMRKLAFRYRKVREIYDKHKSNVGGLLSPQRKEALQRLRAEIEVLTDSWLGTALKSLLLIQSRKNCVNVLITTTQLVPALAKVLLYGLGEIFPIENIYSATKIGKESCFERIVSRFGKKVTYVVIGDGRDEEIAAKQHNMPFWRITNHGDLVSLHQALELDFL
Sequence of EYA3-SIX2 interaction (Q99504 whole entry, looked up, stated change not applied): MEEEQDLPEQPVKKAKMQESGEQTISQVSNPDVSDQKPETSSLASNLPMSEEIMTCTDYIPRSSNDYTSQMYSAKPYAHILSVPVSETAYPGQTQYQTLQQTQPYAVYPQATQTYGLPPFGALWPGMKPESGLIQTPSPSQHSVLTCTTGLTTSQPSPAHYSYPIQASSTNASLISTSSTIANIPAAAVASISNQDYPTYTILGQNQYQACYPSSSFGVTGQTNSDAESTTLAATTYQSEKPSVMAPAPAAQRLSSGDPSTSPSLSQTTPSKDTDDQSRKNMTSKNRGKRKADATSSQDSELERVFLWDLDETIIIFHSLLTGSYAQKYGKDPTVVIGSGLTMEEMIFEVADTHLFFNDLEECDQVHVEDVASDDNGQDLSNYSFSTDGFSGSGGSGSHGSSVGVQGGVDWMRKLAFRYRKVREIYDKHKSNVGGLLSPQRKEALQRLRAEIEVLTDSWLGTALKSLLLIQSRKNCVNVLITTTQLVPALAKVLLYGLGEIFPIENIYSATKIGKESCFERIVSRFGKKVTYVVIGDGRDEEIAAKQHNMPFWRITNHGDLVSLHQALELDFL
Sequence of EYA3-SIX2 interaction (Q9NPC8 whole entry partner, looked up): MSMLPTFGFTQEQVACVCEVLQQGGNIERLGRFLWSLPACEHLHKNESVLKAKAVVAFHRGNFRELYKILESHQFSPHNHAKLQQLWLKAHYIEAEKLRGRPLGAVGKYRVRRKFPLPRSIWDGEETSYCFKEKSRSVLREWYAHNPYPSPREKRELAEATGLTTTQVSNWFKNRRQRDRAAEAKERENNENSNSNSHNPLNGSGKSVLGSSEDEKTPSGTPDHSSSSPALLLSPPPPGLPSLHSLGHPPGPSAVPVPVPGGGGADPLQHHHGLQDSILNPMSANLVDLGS

For `CCc1oc2ccccc2c1C(=O)c1cc(Br)c(O)c(Br)c1` [Compound 1, Benzbromarone, reference compound], the “Vmax and Km as a function of inhibitor concentration” value in series [1] is “both values decrease with increased inhibitor concentration”. In series [1] (increasing substrate concentration), the “mode of inhibition of EYA3 (substrate titration)” value is “not a competitive inhibitor”. Also, the “greater activity towards EYA3 than PTP1B” value on PTP1B was 4.7-6.5 fold. Also, the “EYA3-SIX2 interaction in presence of inhibitor” value on EYA3-SIX2 interaction was “unaffected”. In addition, the “migration of MCF10A(EYA2) cells” value in the series on MCF10A-EYA2 cells is “significantly inhibited cell migration”. The HUVEC cell proliferation entry with HUVECs [2] is “no effect on cell proliferation”. Also, the inhibition of tubulogenesis entry in the series on HUVECs [3] was “effective”. For the same molecule, the aortic ring sprouting entry with mouse aortic rings was “shorter sprouts and significantly lower microvascular density”. Moreover, in [4] (0.25 μM (lowest dose tested)), the intersegmental vessels entry was “significant reduction of intersegmental vessels”. Moreover, the “defects in the developing vasculature” value in [4] is reported as “Dose-dependent defects in the developing vasculature”. Besides, the “formation of neovascular tufts” value in series [5] is “Significant reduction in the formation of neovascular tufts”. In addition, the tumor growth entry in [6] was “able to reduce tumor growth”.

For the molecule `CCCCc1oc2ccccc2c1C(=O)c1ccc(O)cc1` [Compound 1b], on PTP1B, the “greater activity towards EYA3 than PTP1B” value is reported as 4.7-6.5 fold. The “migration of MCF10A(EYA2) cells” value in the series on MCF10A-EYA2 cells was “significantly inhibited cell migration”. Further, in the series on HUVECs [2], the HUVEC cell proliferation result is on record as “no effect on cell proliferation”. In addition, the inhibition of tubulogenesis result in the series on HUVECs [3] is reported as “effective”. In addition, the aortic ring sprouting result in the series with mouse aortic rings is “shorter sprouts and significantly lower microvascular density”. Besides, in series [4], the “number of intersegmental vessels” value is on record as “reduced the number of intersegmental vessels, but were less potent” and the “defects in the developing vasculature” value is listed as “Dose-dependent defects in the developing vasculature”. Moreover, the “formation of neovascular tufts” value in series [5] is given as “Significant reduction in the formation of neovascular tufts”.

Take `CCc1oc2ccccc2c1C(=O)c1ccc(O)cc1` [Compound 1a]: the “greater activity towards EYA3 than PTP1B” value at PTP1B is given as “over 100 fold”. The “reduction of cell motility” value in the series on MCF10A-EYA2 cells (1 μM (lowest concentration tested)) is reported as “over 50%”. In addition, the “migration of MCF10A(EYA2) cells” value with MCF10A-EYA2 cells is listed as “significantly inhibited cell migration”. In addition, the HUVEC cell proliferation entry in the series with HUVECs [2] is “no effect on cell proliferation”. The aortic ring sprouting result in the series with mouse aortic rings is “shorter sprouts and significantly lower microvascular density”. Further, in [4], the “number of intersegmental vessels” value was “reduced the number of intersegmental vessels, but were less potent” and the “defects in the developing vasculature” value is “Dose-dependent defects in the developing vasculature”. Moreover, the “retinal vascular branch points” value in the series on retinal vasculature is “quantifiable decrease in branch points”. In series [5], the “formation of neovascular tufts” value is recorded as “Significant reduction in the formation of neovascular tufts”.
